Data: ChEMBL document CHEMBL4387778, “Dual functional cholinesterase and PDE4D inhibitors for the treatment of Alzheimer's disease: Design, synthesis and evaluation of tacrine-pyrazolo[3,4-b]pyridine hybrids” (Bioorg Med Chem Lett, 2019)

Tests used:
Acetylcholinesterase = Acetylcholinesterase (Electrophorus electricus, UniProt O42275); assay: Inhibition of electric eel AchE using acetylthiocholine as substrate by Ellman's method
Cholinesterase = Cholinesterase (Equus caballus, UniProt P81908); assay: Inhibition of equine serum BuchE using butyrylthiocholine as substrate by Ellman's method
[1] = target: 3',5'-cyclic-AMP phosphodiesterase 4D (Homo sapiens, UniProt Q08499)
3',5'-cyclic-AMP phosphodiesterase 4D, sequence (Q08499 whole entry): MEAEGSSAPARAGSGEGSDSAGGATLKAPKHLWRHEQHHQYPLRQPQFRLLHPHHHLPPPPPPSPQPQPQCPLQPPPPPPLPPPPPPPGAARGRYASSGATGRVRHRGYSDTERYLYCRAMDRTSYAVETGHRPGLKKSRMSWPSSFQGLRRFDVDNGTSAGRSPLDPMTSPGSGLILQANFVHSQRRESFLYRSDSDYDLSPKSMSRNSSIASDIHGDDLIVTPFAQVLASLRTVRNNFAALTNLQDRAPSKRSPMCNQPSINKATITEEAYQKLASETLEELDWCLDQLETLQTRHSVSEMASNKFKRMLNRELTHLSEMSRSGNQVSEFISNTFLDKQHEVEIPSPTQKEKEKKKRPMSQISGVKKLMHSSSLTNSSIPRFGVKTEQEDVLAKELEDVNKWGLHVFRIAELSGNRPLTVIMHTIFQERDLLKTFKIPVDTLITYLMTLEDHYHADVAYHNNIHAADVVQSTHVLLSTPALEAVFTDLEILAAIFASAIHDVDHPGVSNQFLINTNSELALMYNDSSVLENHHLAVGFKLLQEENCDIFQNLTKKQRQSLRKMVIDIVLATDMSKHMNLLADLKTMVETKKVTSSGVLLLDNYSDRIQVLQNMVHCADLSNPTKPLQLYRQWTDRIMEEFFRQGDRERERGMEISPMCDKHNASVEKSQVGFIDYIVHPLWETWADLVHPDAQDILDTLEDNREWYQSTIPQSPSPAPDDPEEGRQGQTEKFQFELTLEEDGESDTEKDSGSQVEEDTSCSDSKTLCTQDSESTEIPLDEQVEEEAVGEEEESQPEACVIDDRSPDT
Description: Inhibition of recombinant human PDE4D2 catalytic domain (86 to 413 residues) expressed in Escherichia coli BL21 codonplus cells using [3H]cAMP as substrate preincubated for 15 mins followed by substrate addition by liquid scintillation counting method

Acetylcholinesterase, sequence (O42275 whole entry): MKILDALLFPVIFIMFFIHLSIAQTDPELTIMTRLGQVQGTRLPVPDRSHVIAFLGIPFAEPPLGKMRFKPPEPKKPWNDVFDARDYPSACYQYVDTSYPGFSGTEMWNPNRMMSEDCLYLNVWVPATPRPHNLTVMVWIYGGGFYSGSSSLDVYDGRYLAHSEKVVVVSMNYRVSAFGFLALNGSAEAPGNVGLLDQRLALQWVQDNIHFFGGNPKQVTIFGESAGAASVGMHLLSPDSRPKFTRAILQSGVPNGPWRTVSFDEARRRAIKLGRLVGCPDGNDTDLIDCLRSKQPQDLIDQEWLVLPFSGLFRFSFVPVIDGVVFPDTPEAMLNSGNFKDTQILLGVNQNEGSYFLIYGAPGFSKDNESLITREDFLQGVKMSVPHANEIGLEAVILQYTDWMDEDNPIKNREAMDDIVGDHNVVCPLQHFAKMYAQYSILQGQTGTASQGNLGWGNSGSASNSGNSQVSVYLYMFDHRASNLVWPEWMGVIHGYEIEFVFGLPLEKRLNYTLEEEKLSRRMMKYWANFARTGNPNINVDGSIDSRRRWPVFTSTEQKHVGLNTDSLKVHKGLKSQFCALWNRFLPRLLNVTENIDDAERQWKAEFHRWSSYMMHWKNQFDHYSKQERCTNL
Cholinesterase, sequence (P81908 whole entry): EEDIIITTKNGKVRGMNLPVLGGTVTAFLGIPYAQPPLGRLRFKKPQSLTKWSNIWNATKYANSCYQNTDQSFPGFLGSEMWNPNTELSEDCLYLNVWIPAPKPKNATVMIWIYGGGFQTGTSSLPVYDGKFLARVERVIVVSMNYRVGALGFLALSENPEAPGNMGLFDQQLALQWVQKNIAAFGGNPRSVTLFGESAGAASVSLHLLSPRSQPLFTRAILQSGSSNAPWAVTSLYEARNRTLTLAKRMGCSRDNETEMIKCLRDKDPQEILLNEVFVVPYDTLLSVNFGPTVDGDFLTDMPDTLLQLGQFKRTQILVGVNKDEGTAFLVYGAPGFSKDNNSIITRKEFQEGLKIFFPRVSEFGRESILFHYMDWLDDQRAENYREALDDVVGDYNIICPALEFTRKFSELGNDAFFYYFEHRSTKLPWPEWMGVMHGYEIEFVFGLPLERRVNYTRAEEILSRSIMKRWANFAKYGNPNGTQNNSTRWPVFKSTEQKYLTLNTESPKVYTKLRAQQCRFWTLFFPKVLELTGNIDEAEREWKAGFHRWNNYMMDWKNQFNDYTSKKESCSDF

| SMILES | IC50 (Acetylcholinesterase) [nM] | IC50 (Cholinesterase) [nM] | IC50 [1] [nM] |
| --- | --- | --- | --- |
| CCn1ncc2c(NC3CCCCC3)c(C(=O)NCCCCCCCCNc3c4c(nc5cc(Cl)ccc35)CCCC4)cnc21 | 812 | 314 | 1080 |
| CCn1ncc2c(NC3CCCCC3)c(C(=O)NCCCCCCCCNc3c4c(nc5ccccc35)CCCC4)cnc21 | 392 | 320 | 1310 |
| CCn1ncc2c(NC3CCCCC3)c(C(=O)NCCCCNc3c4c(nc5cc(Cl)ccc35)CCCC4)cnc21 | 335 | 1280 | 87 |
| CCn1ncc2c(NC3CCCCC3)c(C(=O)NCCCCNc3c4c(nc5ccccc35)CCCC4)cnc21 | 333 | 889 | 108 |
| CCn1ncc2c(NC3CCCCC3)c(C(=O)NCCCCCCCNc3c4c(nc5ccc(Cl)cc35)CCCC4)cnc21 | 391 | 245 | 934 |
| CCn1ncc2c(NC3CCCCC3)c(C(=O)NCCNc3c4c(nc5ccccc35)CCCC4)cnc21 | 243 | 891 | 41 |
| CCn1ncc2c(NC3CCCCC3)c(C(=O)NCCCCCCCNc3c4c(nc5ccccc35)CCCC4)cnc21 | 316 | 324 | 1070 |
| CCn1ncc2c(NC3CCCCC3)c(C(=O)NCCCCCCNc3c4c(nc5cc(Cl)ccc35)CCCC4)cnc21 | 125 | 449 | 271 |
| CCn1ncc2c(NC3CCCCC3)c(C(=O)NCCCCCNc3c4c(nc5ccccc35)CCCC4)cnc21 | 358 | 264 | 477 |
| CCn1ncc2c(NC3CCCCC3)c(C(=O)NCCNc3c4c(nc5cc(Cl)ccc35)CCCC4)cnc21 | 412 | 713 | 25 |
| CCn1ncc2c(NC3CCCCC3)c(C(=O)NCCCCCCNc3c4c(nc5ccccc35)CCCC4)cnc21 | 149 | 332 | 501 |
| CCn1ncc2c(NC3CCCCC3)c(C(=O)NCCCCCNc3c4c(nc5ccc(Cl)cc35)CCCC4)cnc21 | 306 | 434 | 308 |
